# Experimental data from patent publication US12344626B2, “Pharmaceutical compounds and therapeutic methods” (RUTGERS, THE STATE UNIVERSITY OF NEW JERSEY, priority 2019, dated 2025).
# Entries after “also recorded” stand apart in the source; their conditions may differ.
# How the values were obtained:
# [1] = Solubility of zinc complexes; type: physicochemical
# human tumor cell lines = experiment: Cell growth inhibition assay (Calcein AM); type: cell-based; details: for EC50: Calcein AM, incubation for 3 days; for Fold (Zn-1/compound) / Fold (compound/Zn-1): ratio of EC50s
# Description: (§1) Cell growth inhibition assay using human tumor cell lines with different p53 status (wildtype, null, p53-R175H or other zinc binding deficient mutants) are employed to determine if a test compound functions as a zinc metallochaperone to restore wildtype p53 functions. Five thousand cells per well are cultured in 96-well plate to reach the 50% confluence on the second day when treated with serial dilutions of the compounds. Growth is measured by Calcein AM assay after incubation for 72 hours.
# The cell growth inhibition assay was performed by Calcein AM assay (Trevigen). Five thousand cells per well were cultured in 96-well plate to reach the 50% confluence on the second day when treated with serial dilutions of the compounds. Growth was measured by Calcein AM assay (Trevigen) and Victor Plate reader instrument (PerkinElmer) after incubation for 3 days.
# p53R175H cells = experiment: Potency against p53R175H cells in vitro, compared with the monomer from Zn-1; type: cell-based
# Description: as §1
# [2] = tested on: p53 target genes p21, PUMA and GDF15; experiment: Quantitative PCR of p53 target genes (restoration of wild type transcriptional function); type: cell-based; details: for p21, PUMA and GDF15 levels: quantitative PCR
# mutant p53 [3] = biological target: T1, mutant p53 (Homo sapiens, UniProt P04637, R175H); experiment: Immunofluorescent staining with p53 conformation specific antibodies (PAB240, PAB1620); type: cell-based; details: PAB 1620 (wild type specific)
# T1 construct: endogenous in cells; host or cells: p53-R175H cells (e.g. TOV112D)
# Description: An immunofluorescent staining using p53 conformation specific antibodies is used to determine if a test compound could induce the mutant p53 protein refolding to a wildtype conformation. The p53-R175H cells (e.g. TOV112D) cultured in DMEM+10% FBS are treated with a test compound for 6 hours, then fixed and stained with the antibodies PAB1620 (recognizing WT conformation) and PAB240 (recognizing misfolded/unfolded conformation) respectively.
# mutant p53 [4] = biological target: T1, mutant p53; experiment: Cell growth inhibition after mutant p53 knock-down using siRNA; type: cell-based; details: mutant p53 knocked down using an siRNA
# COX1(h) = biological target: T2, COX1(h) (Homo sapiens, UniProt P23219); experiment: CEREP-44 Safety Screen: COX1; type: biochemical; design: dose or concentration left out as unconfirmed
# T2 construct: Eurofins (Cerep) SafetyScreen44 panel, contract screen P270
# T2 sequence (P23219 24-599): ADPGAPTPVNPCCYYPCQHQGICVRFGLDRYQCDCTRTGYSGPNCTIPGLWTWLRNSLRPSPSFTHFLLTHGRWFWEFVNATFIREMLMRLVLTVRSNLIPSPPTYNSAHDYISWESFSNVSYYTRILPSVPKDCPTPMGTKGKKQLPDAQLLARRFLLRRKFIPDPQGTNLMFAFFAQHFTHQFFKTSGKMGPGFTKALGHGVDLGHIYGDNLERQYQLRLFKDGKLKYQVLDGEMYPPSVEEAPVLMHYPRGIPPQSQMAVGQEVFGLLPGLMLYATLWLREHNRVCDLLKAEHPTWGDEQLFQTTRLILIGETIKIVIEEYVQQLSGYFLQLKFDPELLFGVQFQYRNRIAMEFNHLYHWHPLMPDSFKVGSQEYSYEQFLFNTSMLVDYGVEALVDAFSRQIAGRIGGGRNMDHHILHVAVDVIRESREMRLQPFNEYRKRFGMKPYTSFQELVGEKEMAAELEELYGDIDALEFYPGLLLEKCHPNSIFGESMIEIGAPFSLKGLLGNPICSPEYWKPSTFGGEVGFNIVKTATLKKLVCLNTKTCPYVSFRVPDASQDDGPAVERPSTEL
# COX2(h) = biological target: T3, COX2(h) (Homo sapiens, UniProt P35354); experiment: CEREP-44 Safety Screen: COX2; type: biochemical; design: dose or concentration left out as unconfirmed
# T3 construct: Eurofins (Cerep) SafetyScreen44 panel, contract screen P270
# T3 sequence (P35354 18-604): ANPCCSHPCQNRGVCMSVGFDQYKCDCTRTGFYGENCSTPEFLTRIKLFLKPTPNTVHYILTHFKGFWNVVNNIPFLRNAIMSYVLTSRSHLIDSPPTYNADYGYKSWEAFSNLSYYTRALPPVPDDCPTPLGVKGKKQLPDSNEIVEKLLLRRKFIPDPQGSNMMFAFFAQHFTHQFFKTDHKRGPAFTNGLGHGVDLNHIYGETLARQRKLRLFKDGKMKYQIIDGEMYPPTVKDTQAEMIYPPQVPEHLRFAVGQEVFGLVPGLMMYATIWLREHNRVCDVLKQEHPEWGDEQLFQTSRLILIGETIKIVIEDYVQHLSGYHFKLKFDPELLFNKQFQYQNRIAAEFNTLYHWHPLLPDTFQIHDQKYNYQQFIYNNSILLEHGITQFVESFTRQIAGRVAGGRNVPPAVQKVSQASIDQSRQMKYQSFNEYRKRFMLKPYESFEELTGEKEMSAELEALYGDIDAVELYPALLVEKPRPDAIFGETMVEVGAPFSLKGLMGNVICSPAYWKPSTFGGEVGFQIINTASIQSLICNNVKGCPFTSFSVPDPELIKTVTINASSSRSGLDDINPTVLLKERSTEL
# 5-HT2B = biological target: T4, 5-HT2B (Homo sapiens, UniProt P41595); experiment: CEREP-44 Safety Screen: 5-HT2B; type: binding; design: dose or concentration left out as unconfirmed
# T4 construct: Eurofins (Cerep) SafetyScreen44 panel, contract screen P270
# T4 sequence (P41595 whole entry): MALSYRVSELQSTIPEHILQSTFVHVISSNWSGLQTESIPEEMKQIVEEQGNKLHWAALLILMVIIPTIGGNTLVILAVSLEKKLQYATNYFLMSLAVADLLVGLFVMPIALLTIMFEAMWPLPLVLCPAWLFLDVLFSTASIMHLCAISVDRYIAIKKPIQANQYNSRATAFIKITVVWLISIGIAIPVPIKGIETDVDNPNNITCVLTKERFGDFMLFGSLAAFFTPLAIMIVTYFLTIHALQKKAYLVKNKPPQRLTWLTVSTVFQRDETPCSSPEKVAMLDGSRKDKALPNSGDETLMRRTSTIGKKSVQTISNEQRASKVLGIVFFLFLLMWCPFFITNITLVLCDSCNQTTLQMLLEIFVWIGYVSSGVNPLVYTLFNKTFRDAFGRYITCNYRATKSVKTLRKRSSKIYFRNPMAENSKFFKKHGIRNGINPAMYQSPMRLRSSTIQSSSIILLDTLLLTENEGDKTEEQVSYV
Molecule,Solubility DMSO 4 mg/ml [1],Solubility DMSO 10 mg/ml [1],Solubility EtOH 1 mg/ml [1],Solubility EtOH 2 mg/ml [1],Solubility H2O:DMSO 1:1 0.5 mg/mL [1],More potent than the monomer from Zn-1 (p53R175H cells) [fold],EC50 (human tumor cell lines) [nM],Fold (Zn-1/compound) (human tumor cell lines),Fold (compound/Zn-1) (human tumor cell lines),also measured
"C/C(=N\NC(=S)N1CCC1)c1ccccn1 [ZMC-1, reference compound]",,,,,,,,,,"Solubility DMSO (3 mg/ml) ([1]; DMSO 4 mg/ml column, cell annotated (3 mg/ml)): Yes"
"C/C(=N\NC(=S)N1CCC1)c1ccccn1 [ZN-1, reference compound]",Yes,No,No,No,No,3,,,,"EC50 (human tumor cell lines; Homo sapiens, 72 h): 2.69 nM; p21, PUMA and GDF15 levels [2]: markedly induced"
"COc1ccnc(/C(C)=N/NC(=S)N(C)C)c1.COc1ccnc(/C(C)=N/NC(=S)N(C)C)c1.[Zn] [Zn-11, Zn[(E)-2-(1-(4-methoxypyridin-2-yl)ethylidene)-N,N-dimethylhydrazine-1-carbothioamide]2]",Yes,Yes,Partial,,No at 0.5,209,0.22,12.2,0.1,"Qualitative relative solubility in 1:1 DMSO:water ([1]; H2O:DMSO 1:1 at 0.5 mg/mL, compared among Zn-8, Zn-11 and Zn-14): qualitatively more soluble; also recorded: *Qualitatively slightly more soluble compared with Zn-8 and Zn-14"
"C/C(=N\NC(=S)N(C)C)c1ccc(O[C@H]2CCOC2)cn1.C/C(=N\NC(=S)N(C)C)c1ccc(O[C@H]2CCOC2)cn1.[Zn] [Zn-15, Zn[(S,E)-N,N-dimethyl-2-(1-(5-((tetrahydrofuran-3-yl)oxy)pyridin-2-yl)ethylidene)hydrazine-1-carbothioamide]2]",,,,,,,7.08,2.6,0.4,
"Zn[(E)-2-(1-(4-(2-methoxyethoxy)pyridin-2-yl)ethylidene)-N,N-dimethylhydrazine-1-carbothioamide]2 [ZN-8]",Yes,Yes,YES,Partial,No,14,0.37,7.3,0.1,"Wild type conformation change of mutant p53 (mutant p53 [3]): induces a wild type conformation change; p21, PUMA and GDF15 levels [2]: markedly induced; Increases of p21, PUMA and GDF15 in p53R175H knock-out cells ([2]; same cell line with mutant p53R175H knocked out using CRISPR): not observed; Cell growth inhibition after mutant p53 knock-down (mutant p53 [4]): attenuated by more than a log fold; COX1(h) % Inh. (COX1(h)): 54.8 % Inh.; COX2(h) % Inh. (COX2(h)): 50.7 % Inh.; 5-HT2B % Inh. (5-HT2B): 58.7 % Inh."
"Zn[(E)-N,N-dimethyl-2-(1-(4-(2-morpholinoethoxy)pyridin-2-yl)ethylidene)hydrazine-1-carbothioamide]2 [ZN-9]",,Yes,,Yes,,,18.1,0.1,6.7,
"Zn[(E)-N,N-dimethyl-2-(1-(4-(2-morpholinoethoxy)pyridin-2-yl)ethylidene)hydrazine-1-carbothioamide]2 bis mesylate salt [ZN-9 Mesylate salt]",,,,,,,,,,Solubility 0.9% Saline ([1]; 0.9% Saline): 5000 to 10000 µg/mL
